Read-outs that look alike come from different tables or passages of the source.
How the values were obtained:
[1] = tested on: rats; test: Behavioral criteria: sedation and mobility score in rats; conditions: score 0-3; for sedation and mobility score, 30 min / sedation and mobility score, 60 min / sedation and mobility score, 90 min / sedation and mobility score, 120 min / sedation and mobility score, 180 min / sedation and mobility score, 240 min: i.p., 5 mg/kg perphenazine, 7.5 mg/kg fluphenazine or equimolar conjugate; for Sedation score: oral, 4-6 hours after treatment
Procedure: The effect of the administration of the tested compound on animals behavior was measured by evaluating the degree of animal sedation and mobility following the treatment described hereinabove, using a score of from 0 to 3. A score of 0 represents active and mobile animals, 1 represents calm and mobile animals, 2 represents calm and immobile animals and 3 represents completely ataxic and non-alert animals.

[2] = tested on: U-937; test: Proliferation test, U-937 cells; format: cell-based; conditions: Homo sapiens, linear regression of survival percentage
Procedure: (§1) Cell lines: Human prostate carcinoma (PC-3), human colon carcinoma (HT-29), murine melanoma (B-16) and its drug resistant subclone (B-16 MDR), mouse fibroblasts (3T3), myeloid leukemia (HL 60) and its drug resistant subclone (HL 60 MX2), endometrium cell line (MES SA) and its drug resistant subclone (MES DX5), jurkat T lymphoma and monocyte leukemia (U-937), were used in this study.
(§2) Proliferation of cancer and normal cells: Proliferation was measured by neutral red assay or by a fluorometric assay quantitating DNA content. In the neutral red assay, the neutral red is absorbed by lysosomes, thus causing coloring of living cells. Quantitative analysis is performed by colorimetric assay (ELISA reader at 550 nm). In the fluorometric assay, alamar blue is used as a redox indicator. Alamar blue fluorescence was measured at an excitation wavelength of 544 nm and an emission wavelength of […] (FLUOstar BMG Lab Technologies, Offenburg, Germany).
(§3) The cells were sub-cultured and the tested compounds were added thereto in increasing concentrations. The IC50 values were determined by linear regression of the survival percentage of the cells.

[3] = tested on: Jurkat T lymphoma cells; test: Proliferation / viability test, Jurkat T lymphoma cells; format: cell-based; conditions: Homo sapiens
Procedure: as §1, §2, §3

[4] = in vivo; conditions: ICR, mouse, in vivo, ip
Procedure: (§4) Toxicity: In vitro toxicity was determined by measuring the effect of the tested compounds (either known neuroleptics or the chemical conjugates of the invention) on primary cultures of neurons and whole brain neuron and glia cells obtained from the brains of neonatal mice. In vitro toxicity of perphenazine and its chemical conjugate AN 168 was also determined with rat myocytes. Acute toxicity in vivo as determined by the LD50 was evaluated on 2 months old ICR mice following the administration of a single intraperitoneal bolus-dose of drug.
(§5) The in vivo toxicity of perphenazine and AN 167 was evaluated following the intraperitoneal administration of a single dose thereof to mice.

[5] = tested on: ICR mice; test: Acute toxicity in vivo (LD50) in mice; conditions: single intraperitoneal dose, compared with perphenazine (FIG. 21)
Procedure: as §4, §5

[6] = tested on: prolactin; test: Prolactin blood level in rats (enzyme immunometric assay); format: in vivo, rat; conditions: i.p.; measured at 0, 60 and 120 min after treatment
Excerpt: Prolactin secretion: Typical neuroleptics induce hyperprolactinemia, which is frequently associated with gallactorehea and impaired gonadal and sexual function. The measurement of the circulatory plasma prolactin level was therefore used as a sensitive biochemical marker for the psychotropic activity of the known neuroleptics and the chemical conjugates of the present invention, following intraperitoneal or oral administration thereof. Thus, blood was collected from the punctured eye orbital of rats under ether anesthesia and the assay was performed using Millennia, rat prolactin enzyme immunometric assay-kit (DPC, USA).

[7] = tested on: PC-3; test: Proliferation test, PC-3 cells; format: cell-based; conditions: Homo sapiens, linear regression of survival percentage
Procedure: as §1, §2, §3

[8] = tested on: HL 60 MX2 (MDR); test: Proliferation test, HL 60 MX2 (MDR) cells; format: cell-based; conditions: Homo sapiens, HL60/MX2; linear regression of survival percentage
Procedure: as §1, §2, §3

[9] = tested on: B16 MDR; test: Proliferation test, B16 MDR cells; format: cell-based, murine; conditions: Mus musculus; linear regression of survival percentage
Procedure: as §1, §2, §3

[10] = tested on: HT-29; test: Proliferation test, HT-29 cells; format: cell-based; conditions: Homo sapiens, linear regression of survival percentage
Procedure: as §1, §2, §3

[11] = tested on: B16; test: Proliferation test, B16 melanoma cells; format: cell-based, murine; conditions: for IC50: Mus musculus, B16, linear regression of survival percentage
Procedure: as §1, §2, §3

[12] = tested on: Normal rat fibroblasts; test: Proliferation test, normal rat fibroblasts; format: cell-based; conditions: Fibroblast, linear regression of survival percentage
Procedure: The primary cultures of rat fibroblasts were obtained from neonatal rats using known procedures.
as §2, §3

[13] = tested on: 3T3; test: Proliferation test, 3T3 fibroblasts; format: cell-based; conditions: Mus musculus, NIH3T3; linear regression of survival percentage
Procedure: as §1, §2, §3

[14] = tested on: MES SA DX5 (MDR); test: Proliferation test, MES SA DX5 (MDR) cells; format: cell-based; conditions: Homo sapiens, linear regression of survival percentage
Procedure: as §1, §2, §3

[15] = tested on: rats; test: Catalepsy in rats, “wall” test
Procedure: (§6) Animals: Young adult male rats (150-230 grams) were purchased from Harlan (Israel). Animals were divided 2-5/cage and housed in controlled conditions in the animal room for a week prior to the experiments. The experiments were conducted with naive animals, in a double blind procedure. In each experiment various treatment groups (about 5-10 animals each) were tested.
(§7) Catalepsy in rats: The manifestation of the extrapyramidal adverse effects induced by typical neuroleptics was evaluated by the appearance of stereotypic cataleptic behavior in rats following the neuroleptic treatment. Catalepsy was determined by two methods: (i) by measuring the time it took an animal hanging on a cage wall to move its hind legs and reach a flat surface (the “wall” test); and (ii) rats were placed on a flat surface with their anterior limbs leaning on a flat bar (5.5 cm height) resembling a piano playing position. Catalepsy was determined by the time it took an animal to descend and reach the flat surface (the “piano” test). The maximum time of follow up was 2 minutes and these measurements were performed hourly and individually for each animal. These tests provide an assessment of central dopamine (DA) blocking activity and are acceptable criteria for extrapyramidal symptoms induced by anti-psychotic drugs [10].
(§8) A control animals group was treated with the vehicle (lactic acid) only.

[16] = tested on: MES SA; test: Proliferation test, MES SA cells; format: cell-based; conditions: Homo sapiens, linear regression of survival percentage
Procedure: as §1, §2, §3

[17] = tested on: HL 60; test: Proliferation test, HL 60 cells; format: cell-based; conditions: Homo sapiens, linear regression of survival percentage
Procedure: as §1, §2, §3

[18] = tested on: C6 rat glioma cells; test: Viability of C6 rat glioma cells (neutral red); format: cell-based; conditions: Rattus norvegicus, Glioma cell; 24 hours treatment, neutral red, up to 100 μM (FIG. 14)
Procedure: as §2
The cells were sub-cultured and the tested compounds were added thereto in increasing concentrations, up to 100 μM.

[19] = tested on: rats; test: Catalepsy in rats, “piano” test, oral administration; format: in vivo, rat; conditions: oral, 10 and 20 mg/kg perphenazine or equimolar doses of conjugate
Procedure: To this end, the induced catalepsy, the prolactin blood levels and the animal behavior were measured as described hereinabove, following oral administration of either AN 168 or perphenazine alone to rats. Animals, divided 5 per cage, were treated by oral administration of perphenazine or AN-168 dissolved in 1% lactic acid. Control animals received vehicle (lactic acid) only.
The catalepsy induced by oral administration of various concentrations of AN 168 and perphenazine was measured by the “wall” test and the “piano” test described hereinabove. The time course of catalepsy was measured 4-24 hours following oral administration of 2.5, 5, 10 and 20 mg/kg perphenazine and respective equimolar doses of 3.5, 7, 14 and 28 mg/kg AN-168. The total catalepsy represents the sum of average catalepsy per treated group during the 4-24 hours of follow-up.

[20] = tested on: rat myocytes; conditions: Wistar, rat
Procedure: as §4

[21] = tested on: C6 rat glioma cells; test: DNA fragmentation in C6 rat glioma cells (propidium iodide flow cytometry); format: cell-based; conditions: Cisplatin 30 μM; perphenazine 25 and 50 μM; AN 168 25, 50 μM (FIG. 18)
Procedure: Apoptosis and DNA fragmentation: Fragmentation of cell nuclei was studied by flow cytometric analysis of propidium iodide-stained cells. This analysis was performed using a FACScan (Becton Dickinson, Mountain View, Calif.) equipped with an argon ion laser adjusted to an excitation wavelength of 480 nm and with a Doublet Discrimination Module (DDM). Lysis II (Becton Dickinson) software was used for data acquisition. Apoptotic nuclear changes were evaluated according to the criteria of Nicolletti et al..
The DNA fragmentation was determined by the propidium iodide flow cytometric method described hereinabove.

[22] = tested on: rats; conditions: rat, in vivo, ip, 5 mg/kg
Procedure: as §6, §7, §8

[23] = tested on: mice; test: Catalepsy in mice (bar between two cages); format: in vivo, mouse; conditions: adult male mice, 1.5 mg/kg perphenazine or equimolar dose (FIG. 7a)
Procedure: Young adult male and female mice were purchased from Harlan, Israel. The animals were housed for 4-7 days under controlled conditions prior to experimentation. Experiments were conducted in a double blind procedure. In each experiment various treatment groups (about 10 animals each) were tested.
Catalepsy in mice: The appearance of stereotypic cataleptic behavior in mice following the neuroleptic treatment was measured in two different sets of experiments.
The catalepsy was determined using a system of two cages and a bar therebetween. The mouse was hung in the middle of the bar, and the percentage of animals reaching the target within 2 minutes was monitored 1 hour, 2 hours and 3 hours following the treatment.
The catalepsy was determined using the system described hereinabove. The mouse was hung in the middle of the bar, and the time it took the animal to reach the target was measured.

[24] = linear regression of survival percentage, read-out: IC50, JURKAT

Compound	sedation and mobility score, 30 min [1]	sedation and mobility score, 60 min [1]	sedation and mobility score, 90 min [1]	sedation and mobility score, 120 min [1]	sedation and mobility score, 180 min [1]	sedation and mobility score, 240 min [1]	IC50 [2]	IC50 [3, 24]	LD50 at 2 weeks [4]	time at which prolactin blood level peaked [6]	IC50 [7]	IC50 [8]	IC50 [9]	IC50 [10]	IC50 [11]	IC50 [13]	IC50 [14]	IC50 [16]	IC50 [17]	further results
CCCC(=O)OCCN1CCN(CCCN2c3ccccc3Sc3ccc(Cl)cc32)CC1 [AN-167, Perphenazine Butyrate]	0	1	1	2	2	2	23.3 µM	11.4 µM	120 mg/kg	60 min	49.1 µM	19.9 µM	41.5 ± 1.8 µM	13.3 ± 2.4 µM	17.3 ± 4.5 µM	21.7 µM	20.9 µM	17.2 µM	17.3 µM	time course of mortality [5]: delayed; effect on the proliferation of B16 murine melanoma cells ([11]; representative experiment (FIG. 13)): relatively active as anti-proliferative drugs; IC50 [12]: 31.6 µM; average of total catalepsy as percentage of the perphenazine-induced catalepsy ([15]; equimolar doses, four independent experiments (FIG. 6)): lower catalepsy as compared with perphenazine; induced catalepsy, SAR studies ([15]; i.p., 5 mg/kg perphenazine and equimolar conjugates, compared with perphenazine (FIG. 2)): significant reduction of the induced catalepsy; total catalepsy ([15]; i.p., 5 mg/kg perphenazine and equimolar conjugates, sum of determinations at 0, 60, 120 min (FIG. 1a)): did not induce catalepsy at all; total catalepsy ([15]; i.p., 5 mg/kg perphenazine, 7.5 mg/kg fluphenazine, equimolar conjugates, sum 0-420 min, normalized to parent drug (FIG. 3a)): reduced catalepsy significantly; time course of catalepsy ([15]; i.p., over a period of 7 hours (FIGS. 4a, 4b)): reduced catalepsy as compared with perphenazine
OCCN1CCN(CCCN2c3ccccc3Sc3ccc(Cl)cc32)CC1 [Perphenazine, perphenazine, reference compound]	1	2	2	3	2	2	21.3 µM	11.3 µM	109 mg/kg	60 min	23.1 ± 2.3 µM	22.6 µM	18.4 ± 5.4 µM	8.85 ± 2.7 µM	12.5 ± 1.29 µM	26.6 µM	16.2 µM	15.3 µM	19.8 µM	IC50 [18]: 19.2 µM; Sedation score ([1]; 2.5 mg/kg): 0; Sedation score ([1]; 5 mg/kg): 1; Sedation score ([1]; 10 mg/kg): 2; Sedation score ([1]; 20 mg/kg): 3; muscular rigidity and tachypnea [19]: muscular rigidity and tachypnea were observed; decrease in cells viability [20]: 20%; IC50 ([3]; alamar blue method (FIG. 15), read-out: IC50, Jurkat T lymphoma cells viability): 16 µM; DNA fragmentation [21]: induced a dramatically increase in DNA fragmentation; time at which catalepsy peaked ([22]; male): 2 h; total catalepsy [22]: catalepsy was induced; catalepsy: percentage of animals reaching the target within 2 minutes [23]: higher catalepsy

— patent US8168628B2, “Conjugated psychotropic drugs and uses thereof” (Ramot at Tel-Aviv University Ltd., priority 2001, dated 2012)
